Laboratory results taken from a melting point compilation (Tetko et al.; mined from patent text by program, amines drawn as free bases though some values may be those of a salt).

SMILES	melting point [°C]
CC1(C)CC(=O)C(SCc2ccc([N+](=O)[O-])cc2)=C(O)C1	140 to 142
CCCCN1C(=O)NC(=Cc2cccs2)C1=O	140
COC(=O)c1ccc(CC(C)NCC(O)c2ccc(O)c(C)c2)cc1 (configuration not stated)	103 to 107
CC(C)(C)c1ccc2c(c1)[C@H]1Cc3ccccc3[C@H]1N2 (relative stereo)	103 to 105
O=C(c1ccc2nonc2c1)N1CCOCC1	148 to 150
C#CCn1c(C(F)(F)F)nc2cc(F)c(-n3c(=O)cc(C(F)(F)F)n(C)c3=O)cc21	104 to 105
O=P(O)(O)Oc1cccc(-c2cn3c(n2)sc2ccccc23)c1	205 to 208
CCCCNC(=O)Cc1ccc2c(c1)c(Cc1ccc(C(=O)O)cc1OC)cn2C	92 to 95
COc1ccc(-c2cc(=Nc3ccc(OCC(O)CNC(C)C)cc3)n(C)c(=O)n2C)cc1OC (configuration not stated)	129 to 132
Cc1ccc(S(=O)(=O)OCC2Cc3c(F)ccc(Br)c3O2)cc1 (configuration not stated)	100 to 103
CCOCCOc1cc(OC)c(C(CC(=O)Nc2cc(C(N)=O)ccc2C(C)(C)C)CC(C)C)cc1Cl (configuration not stated)	180 to 181
Cn1cc(C2=C(c3c4n(c5ccccc35)CCC4)C(=O)NC2=O)c2ccccc21	260 to 270
CNc1nc(-c2ccc(OCCCn3ccnc3)cc2)no1	154 to 155
CC(C)(C)c1cc(N=C2CCCc3cc4c(nc32)C(=Nc2cc(C(C)(C)C)cc(C(C)(C)C)c2)CCC4)cc(C(C)(C)C)c1	129 to 132
CCC(Cl)C(=O)NC(C)=O (configuration not stated)	51 to 53
O=C(O)c1cccc2nnsc12	239 to 240
C=CCn1c(=O)c(C(=O)OCC)c(N2CCN(C(=O)c3cccs3)CC2)c2cccnc21	89 to 96
O=C1CCC(CCN2CCN(c3cc(C(F)(F)F)ccc3F)CC2)CC1	75 to 76

SMILES	melting point [°C]
Cc1oc(-c2ccccc2)nc1CCOc1ccc(CN(O)C(N)=O)cc1	148 to 150
ClCCCCOc1cccc(OCCCCCl)c1	85 to 86
Clc1ccc(Oc2cncc3sc(C4=NCCN4)cc23)cc1	154 to 155
CCCCCCn1c2cc(CO)ccc2c2ccc(CO)cc21	98 to 99
Cn1ccc2cc(NC(=O)c3cc4ccccc4n3Cc3cccc(C(F)(F)F)c3)ccc21	189 to 190
COc1ccc(OC(c2ccc(OC)cc2)C(Cl)(Cl)Cl)cc1 (configuration not stated)	90
COC(=O)C12COc3cc(F)ccc3N1N=C(C(=O)Nc1ccc(C(F)(F)F)cc1)C2 (configuration not stated)	178 to 181
O=C(O)c1cc(S(=O)(=O)Cl)cc(S(=O)(=O)Cl)c1O	185 to 187
Cc1ccc(S(=O)(=O)OCC2CCc3sc(C)nc3C2)cc1 (configuration not stated)	105 to 106
O=C1NC(C(=O)NCCO[N+](=O)[O-])C(c2ccco2)S1 (configuration not stated)	117 to 118
O=C1CCC(c2ccc3[nH]c(-c4cccnc4)cc3c2)=NN1	298 to 300
CC1(C)CS(=O)(=O)CC(C)(C)N1CC#N	188
Cc1nc(Sc2ncccc2C(F)(F)F)sc1CC(=O)O	195 to 196
CC1(C)CCC(C)(C)c2c(CC#Cc3ccc(C(=O)O)cc3)cc(-c3ccccc3)cc21	228
CCSC1CN2CCC1CC2 (configuration not stated)	101 to 102
O=C(CCCCN1CCCC1)NNC(=O)N1Cc2ccccc2Oc2ccc(Cl)cc21	133 to 135
CCC1(CCCCN2CCN(c3cccc(Cl)c3)CC2)C(=O)Nc2ccc(Cl)cc21 (configuration not stated)	139 to 142
COC(=O)c1cc(C)c(OCCNC(=O)C2Cc3ccccc3N2S(=O)(=O)c2ccc(-c3cccc(C(F)(F)F)c3)cc2)c(C)c1 (configuration not stated)	81 to 83

Now from value to compound:

melting point [°C]	SMILES
201 to 202	CSc1nccc(NC(N)=NCC(F)(F)F)n1
148 to 153	Nc1cc(C=C2OC(=O)c3ccccc32)ccc1Cl
52	CCOCCOc1ccc(CCNC(=O)/C=C/c2cccs2)cc1S(N)(=O)=O
78 to 80	Nc1ccc(Cl)c(Cl)c1Br
218 to 219	CC(C)(C)OC(=O)N[C@@H](Cc1ccccc1)[C@@H](O)C[C@@H](Cc1ccc(O)cc1)C(=O)N[C@H]1c2ccccc2C[C@H]1O
132	O=C(On1nnc2ccc(Cl)cc21)c1ccccc1
> 200	O=c1[nH]c2c(n(O)c1=O)C1=C(CCC(n3ccc(CN4CCN(Cc5ccccc5)CC4)c3)=C1)CC2
268 to 270	C[C@H]1Cc2c(Cl)c(Cl)cc3c(=O)c(C(=O)O)cn1c23
147 to 149	ON=Cc1cn(C(c2ccccc2)(c2ccccc2)c2ccccc2)c(F)n1
193 to 200	N#Cc1coc2ccc(Br)cc2c1=O
94 to 95	CCOC(=O)C1(C)C=C(O)c2c(sc3c2CCC2(C3)OCCO2)N1 (configuration not stated)
90 to 91	BrCCCCCCCCn1nnc(-c2ccccc2)c1-c1ccccc1
211 to 212	O=c1[nH]c2ccccc2c2c(CCN3CCN(Cc4ccccc4)CC3)n(-c3ccccc3)nc12
253 to 255	COc1cc2ncc(C#N)c(Nc3cccc(C(N)=O)c3)c2cc1OC
64 to 66	CCOC(=O)Cc1nc(-c2ccc(OC)cc2)oc1-c1ccco1
108 to 110	Cn1cccc1C(=O)c1ccc2ccccc2c1
191 to 192	CCCCc1ncc(/C=C(\Cc2ccc(N)cc2)C(=O)O)n1Cc1ccccc1Cl
177 to 179	COc1ccc(-c2nc(Sc3ccncc3)[nH]c2-c2ccc(OC)cc2)cc1

melting point [°C]	SMILES
92 to 93	OC1(c2ccc(Cl)nc2)CCCC1
151 to 152	COc1ccc(C2NC(=O)C(C)S2)cc1OC (configuration not stated)
78 to 83	Nc1ccc(OC2=C(Oc3ccc(N)cc3)C(F)(F)C(F)(F)C2(F)F)cc1
> 250	COc1cc2[nH]cc(C(=O)Nc3cccnc3)c2cc1Br
191 to 192	O=S(=O)(C=Cc1ccccc1)N1CCc2c([nH]c3ccccc23)C1c1ccc2c(c1)OCO2 (configuration not stated)
> 320	CCn1cc(C(=O)O)c(=O)c2c(F)c(F)c(N3CCCC3)c(F)c21
213 to 215	Cc1cc(Nc2cncc(Nc3ccc(Cl)c(C(=O)N(C)C)c3)n2)n[nH]1
138 to 140	COc1ccc(CNc2cc(Cl)c(N=CN(C)C)c(Cl)c2)cc1F
148 to 150	COc1ccc(-n2nnc(-c3ccc(Cl)cc3F)c2N)cc1
101 to 103	COc1ccc(C=CS(=O)(=O)N2C(=O)CCC2OC(C)C)cc1 (configuration not stated)
100 to 102	CC(C)(C)OC(=O)NC12CC3CC(C1)CC(OS(C)(=O)=O)(C3)C2
141 to 143	Cc1ccc(-c2ccc3c(c2)C=C(C(=O)N[C@H]2CC[C@H](CN(C)C4CCOCC4)CC2)CO3)cc1
266 to 267	COC[C@H]1CCCN1NC(=O)c1ccc(-c2[nH]nc3c2C(=O)c2c(NC(=O)NN4CCOCC4)cccc2-3)s1
323 to 326	Cn1nc2c(N)nc3ncccc3c2c1CC(C)(C)C
161 to 162	COC(=O)CNc1ccc(CCNC(=O)c2ccc(C#N)cc2)cc1
182	O=C(c1ccc(F)cc1)C1CCN(C2CN(Cc3ccncc3)CCC2O)CC1 (configuration not stated)
106 to 107	Cc1cc(Oc2c(Cl)cc(C(F)(F)F)cc2Cl)nn1C(=O)NCCBr
124 to 126	CN(C(=O)C(F)(F)F)C(C(=O)O)c1ccccc1 (configuration not stated)
